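These data come from cells grown in 96-well plates and exposed to compound for 48 hours at five concentrations. The concentration for 50% growth inhibition is given as GI50.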 Active and inactive are the calls of the source. Rule as the data show it: active = GI50 up to about 1.1 µM and inactive = higher.
Experiments:
Test in all cases: growth of human tumour cells (NCI), 48 h
HCC 2998 = test system: HCC 2998
SNB-19 = test system: SNB-19
A549 = test system: A549
HCT-116 = test system: HCT-116
EKVX = test system: EKVX
RPMI-8226 = test system: RPMI-8226
KM12 = test system: KM12
CCRF-CEM = test system: CCRF-CEM
A498 = test system: A498
Hs-578T = test system: Hs-578T
PC-3 = test system: PC-3
UACC-257 = test system: UACC-257
MDA-MB-435 = test system: MDA-MB-435
DU-145 = test system: DU-145
786-0 = test system: 786-0
COLO 205 = test system: COLO 205
HOP-62 = test system: HOP-62
NCI/ADR-RES = test system: NCI/ADR-RES
SK-MEL-2 = test system: SK-MEL-2
NCI-H226 = test system: NCI-H226

SMILES | GI50 (HCC 2998) | GI50 (SNB-19) | GI50 (A549) | GI50 (HCT-116) | GI50 (EKVX) | GI50 (RPMI-8226) | GI50 (KM12) | GI50 (CCRF-CEM) | GI50 (A498) | GI50 (Hs-578T) | GI50 (PC-3) | GI50 (UACC-257) | GI50 (MDA-MB-435) | GI50 (DU-145) | GI50 (786-0) | GI50 (COLO 205) | GI50 (HOP-62) | GI50 (NCI/ADR-RES) | GI50 (SK-MEL-2) | GI50 (NCI-H226)
O=C1Oc2ccccc2C(=O)/C1=C/N1C(=O)N/C(=C\c2ccccc2O)C1=O | > 57.4 µM (inactive) | > 100 µM (inactive) | 58.9 µM (inactive) | 36.6 µM (inactive) | > 67.8 µM (inactive) | 43 µM (inactive) | 56.8 µM (inactive) | > 100 µM (inactive) | 42.6 µM (inactive) | > 53.1 µM (inactive) | 43.6 µM (inactive) | 67.5 µM (inactive) | > 79.3 µM (inactive) | 46.3 µM (inactive) | 68.7 µM (inactive) | 62.5 µM (inactive) | 71.3 µM (inactive) | 65.3 µM (inactive) | > 56.9 µM (inactive) | 81.1 µM (inactive)
N#CC(C#N)[C@@H]1CCC=C(Sc2ccccc2)[C@H]1Sc1ccccc1 | 2.86 µM (inactive) | 12.8 µM (inactive) | 3.28 µM (inactive) | 2.11 µM (inactive) | 4.54 µM (inactive) | 2.28 µM (inactive) | 3 µM (inactive) | 1.57 µM (inactive) | 13.5 µM (inactive) | 5.16 µM (inactive) | 3.86 µM (inactive) | 2.26 µM (inactive) | 1.26 µM (inactive) | 2.72 µM (inactive) | 2.17 µM (inactive) | 2.2 µM (inactive) | 3.2 µM (inactive) | 2.72 µM (inactive) | 3.07 µM (inactive) | 1.72 µM (inactive)
COC(=O)[C@H](Cc1ccccc1)NC(=O)c1ccc(CNC(=O)/C=C/c2ccc(-c3ccccc3)cc2)cc1 | 11.5 µM (inactive) | 12.6 µM (inactive) | > 100 µM (inactive) | 4.95 µM (inactive) | > 100 µM (inactive) | > 100 µM (inactive) | > 100 µM (inactive) | 6.62 µM (inactive) | > 100 µM (inactive) | 22.8 µM (inactive) | > 100 µM (inactive) | > 100 µM (inactive) | > 100 µM (inactive) | > 100 µM (inactive) | 3.56 µM (inactive) | > 100 µM (inactive) | 15.6 µM (inactive) | 59.8 µM (inactive) | > 100 µM (inactive) | > 100 µM (inactive)
Cc1cc(NC(=O)NC(=O)c2ccccc2N)ccc1Oc1ncc(Br)cn1 | 0.0154 µM (active) | < 0.0137 µM (active) | 0.0112 µM (active) | < 0.0124 µM (active) | 0.0826 µM (active) | 0.025 µM (active) | < 0.0105 µM (active) | 0.0111 µM (active) | < 0.0802 µM (active) | < 0.01 µM (active) | < 0.01 µM (active) | 0.0655 µM (active) | < 0.01 µM (active) | 0.0125 µM (active) | < 0.0119 µM (active) | < 0.0104 µM (active) | 0.0118 µM (active) | < 0.01 µM (active) | < 0.01 µM (active) | 0.0702 µM (active)
CCN(CC)P1(=S)Oc2ccc3ccccc3c2-c2c(ccc3ccccc23)O1 | 77.4 µM (inactive) | > 100 µM (inactive) | > 100 µM (inactive) | 83 µM (inactive) | > 100 µM (inactive) | > 100 µM (inactive) | 5 µM (inactive) | > 100 µM (inactive) | > 100 µM (inactive) | 40.3 µM (inactive) | > 100 µM (inactive) | > 100 µM (inactive) | > 100 µM (inactive) | > 100 µM (inactive) | > 100 µM (inactive) | > 100 µM (inactive) | > 100 µM (inactive) | > 100 µM (inactive) | > 100 µM (inactive) | > 100 µM (inactive)
CC(=O)C(=[N+]=[N-])C(=O)OC(C)(C)C#N | > 10 µM (inactive) | > 10 µM (inactive) | > 10 µM (inactive) | > 10 µM (inactive) | > 10 µM (inactive) | > 10 µM (inactive) | > 10 µM (inactive) | > 10 µM (inactive) | > 10 µM (inactive) | > 10 µM (inactive) | > 10 µM (inactive) | > 10 µM (inactive) | > 10 µM (inactive) | > 10 µM (inactive) | > 10 µM (inactive) | > 10 µM (inactive) | > 10 µM (inactive) | > 10 µM (inactive) | > 10 µM (inactive) | > 10 µM (inactive)
CC(=O)NN/C=N/C(C#N)=C(\N)C#N | > 100 µM (inactive) | > 100 µM (inactive) | > 100 µM (inactive) | > 100 µM (inactive) | > 100 µM (inactive) | > 100 µM (inactive) | > 100 µM (inactive) | > 100 µM (inactive) | > 100 µM (inactive) | > 100 µM (inactive) | > 100 µM (inactive) | > 100 µM (inactive) | > 100 µM (inactive) | > 100 µM (inactive) | > 100 µM (inactive) | > 100 µM (inactive) | > 100 µM (inactive) | > 100 µM (inactive) | > 100 µM (inactive) | > 100 µM (inactive)
COc1nc(N)c(NC2OC(CO)C(O)C2O)c(=O)[nH]1 (stereo not given) | > 100 µM (inactive) | > 100 µM (inactive) | > 100 µM (inactive) | > 100 µM (inactive) | > 100 µM (inactive) | > 100 µM (inactive) | > 100 µM (inactive) | > 100 µM (inactive) | > 100 µM (inactive) | > 100 µM (inactive) | > 100 µM (inactive) | > 100 µM (inactive) | > 100 µM (inactive) | > 100 µM (inactive) | > 100 µM (inactive) | > 100 µM (inactive) | > 100 µM (inactive) | > 100 µM (inactive) | > 100 µM (inactive) | > 100 µM (inactive)
COC(=O)C#Cc1ccc([N+](=O)[O-])cc1 | 1.76 µM (inactive) | 2.75 µM (inactive) | 2.74 µM (inactive) | 1.15 µM (inactive) | 1.76 µM (inactive) | 0.665 µM (active) | 1.8 µM (inactive) | 0.532 µM (active) | 9.91 µM (inactive) | 2.84 µM (inactive) | 3.73 µM (inactive) | 2.37 µM (inactive) | 2.18 µM (inactive) | 1.76 µM (inactive) | 2.32 µM (inactive) | 1.83 µM (inactive) | 2.65 µM (inactive) | 2.87 µM (inactive) | 3.69 µM (inactive) | 2.47 µM (inactive)
O=C(O)C1OC(n2cc(F)c(=O)[nH]c2=O)CC1O (stereo not given) | 0.574 µM (active) | 52.5 µM (inactive) | 2.97 µM (inactive) | 23.1 µM (inactive) | > 82.8 µM (inactive) | 61.7 µM (inactive) | > 95.9 µM (inactive) | 3.44 µM (inactive) | 10.1 µM (inactive) | > 78.7 µM (inactive) | 51.8 µM (inactive) | > 100 µM (inactive) | > 93.1 µM (inactive) | 24.3 µM (inactive) | 15.6 µM (inactive) | 61.5 µM (inactive) | 5.22 µM (inactive) | 13.2 µM (inactive) | > 100 µM (inactive) | > 83.9 µM (inactive)

— ChEMBL document CHEMBL1201862, “PubChem BioAssay data set” (2004)
